Consider nine compounds from patent US20260374794A1, “COMPOUNDS TARGETING MUTANT OF P53” (JACOBIO PHARMACEUTICALS CO., LTD., priority 2022, published 2026).

The experiment addresses T1, p53(Y220C) (Homo sapiens, UniProt P04637, Y220C).
T1 construct: His-p53 Y220C (94-294) protein
Description: In vitro DNA binding assay (HTRF), His-p53 Y220C (94-294) with biotinylated p53 consensus DNA. The format is biochemical. To be noted: HTRF; 27 °C; His-p53 Y220C (94-294) 2.5 nM; biotinylated DNA 10 nM; normalized to 2 μM Ref-1a; EC50 = concentration at 50% Activation; read-out: p53(Y220C) EC50. On the procedure:
After His-p53 Y220C (94-294) protein was placed with a compound in the present of MAb Anti His-Tb cryptate (Cisbio, Cat. NO. 61HI2TLA) in a 384 well microplate (Greiner) for 15 min at 25 °C, the assay plate was transferred into 27 °C incubator and incubated for 60 min. Biotinalyted p53 consensus DNA (ID: p53-SEQUENCE 2 —F: 5′(biotin)-[…] 3′ —R: 5′ […] 3′) was added into the assay plate in the present of Streptaidin-d2 (Cisbio, Cat. NO. 610SADLF) cryptate (Final concentration: 20 mM HEPES pH=7.4, 75 mM KCl, 1 mM MgCl2, 0.1% (w/v) BSA, 1 mM DTT, 2.5 nM His-P53 Y220C (94-294) protein, 0.33 nM MAb Anti His-Tb cryptate, 2.5 nM Streptaidin-d2 cryptate, 10 nM Biotinalyted DNA) and incubated for another 60 min. Wells containing 2 μM reference compound Ref-1a served as high control, and wells containing same percentage of DMSO served as low control. Homogeneous time-resolved fluorescence (HTRF) signals were read on Tecan Spark multimode microplate reader. HTRF ratios for each individual well were calculated by equation: HTRF ratio=(Signal F665/Signal F620)*1000. The percent of activation of compounds treated wells were normalized between high control and low control (% Activation=(HTRF ratiocompound treated−HTRF ratiolow control)/(HTRF ratiohigh control−HTRF ratiolow control)*100%). Then the data were analyzed either by fitting a 4-parameter logistic model or by Excel to calculate EC50 values. And the EC50 was the concentration at 50% Activation on the curve.
For orientation: In TR-FRET formats the signal depends on donor and acceptor labels being close together.

In the case of `[2H]C([2H])([2H])Oc1cc(P(C)(C)=S)ccc1NCC#Cc1sc2c(N[C@@H]3CCN(C)C[C@@H]3F)cccc2c1CC(F)(F)F` [Example 47, (4-((3-(7-(((3S,4R)-3-fluoro-1-methylpiperidin-4-yl)amino)-3-(2,2,2-trifluoroethyl)benzo[b]thiophen-2-yl)prop-2-yn-1-yl)amino)-3-(methoxy-d3)phenyl)dimethylphosphine sulfide], the EC50 came to 180 nM.

For `CN1CC[C@@H](Nc2cccc3c(CC(F)(F)F)c(C#CCNc4ccc(P(C)(C)=O)cc4-c4nc(=O)o[nH]4)sc23)[C@@H](F)C1` [Example 39, 3-(5-(dimethylphosphoryl)-2-((3-(7-(((3S,4R)-3-fluoro-1-methylpiperidin-4-yl)amino)-3-(2,2,2-trifluoroethyl)benzo[b]thiophen-2-yl)prop-2-yn-1-yl)amino)phenyl)-1,2,4-oxadiazol-5(2H)-one], the EC50 stood at 292 nM.

For the compound `CN1CC[C@@H](Nc2cccc3c(CC(F)(F)F)c(C#C[C@@H]4Cc5cc(P(C)(C)=O)ccc5N4)sc23)[C@@H](F)C1` [Example 21, ((S)-2-((7-(((3S,4R)-3-fluoro-1-methylpiperidin-4-yl)amino)-3-(2,2,2-trifluoroethyl)benzo[b]thiophen-2-yl)ethynyl)indolin-5-yl)dimethylphosphine oxide], the EC50 was determined as 424 nM.

For `COc1cc(P(C)(C)=O)ccc1NCC#Cc1sc2c(N[C@H]3CCN(C)C[C@H]3F)cccc2c1[C@H](O)C(F)(F)F` [Example 32, (4-((3-(7-(((3R,4S)-3-fluoro-1-methylpiperidin-4-yl)amino)-3-((S)-2,2,2-trifluoro-1-hydroxyethyl)benzo[b]thiophen-2-yl)prop-2-yn-1-yl)amino)-3-methoxyphenyl)dimethylphosphine oxide], the EC50 was 117 nM.

Regarding `COc1cc(P(C)(C)=O)ccc1NCC#Cc1sc2c(N[C@@H]3CCN(C)C[C@@H]3F)cccc2c1C(C)C(F)(F)F` (stereo partly drawn) [Example 18, (4-((3-(7-(((3S,4R)-3-fluoro-1-methylpiperidin-4-yl)amino)-3-(1,1,1-trifluoropropan-2-yl)benzo[b]thiophen-2-yl)prop-2-yn-1-yl)amino)-3-methoxyphenyl)dimethylphosphine oxide], the EC50 stood at 574 nM.

As to `COc1cc(S(C)(=O)=O)ccc1NCC#Cc1sc2c(N[C@H]3CCN(C)C[C@H]3F)cccc2c1CC(F)(F)F` [Example 35, (3R,4S)-3-fluoro-N-(2-(3-((2-methoxy-4-(methylsulfonyl)phenyl)amino)prop-1-yn-1-yl)-3-(2,2,2-trifluoroethyl)benzo[b]thiophen-7-yl)-1-methylpiperidin-4-amine], the EC50 was 192 nM.

With `COc1cc(P(C)(C)=O)ccc1NCC#Cc1sc2c(NCC3(F)CCN(C)CC3)cccc2c1CC(F)(F)F` [Example 16, (4-((3-(7-(((4-fluoro-1-methylpiperidin-4-yl)methyl)amino)-3-(2,2,2-trifluoroethyl)benzo[b]thiophen-2-yl)prop-2-yn-1-yl)amino)-3-methoxyphenyl)dimethylphosphine oxide], the EC50 came out at 250 nM.

With `COc1cc([S@@](=N)(=O)C(F)F)ccc1NCC#Cc1sc2c(N[C@@H]3CCN(C)C[C@@H]3F)cccc2c1CC(F)(F)F` [Example 52, (R)-(difluoromethyl)(4-((3-(7-(((3S,4R)-3-fluoro-1-methylpiperidin-4-yl)amino)-3-(2,2,2-trifluoroethyl)benzo[b]thiophen-2-yl)prop-2-yn-1-yl)amino)-3-methoxyphenyl)(imino)-16-sulfanone], the EC50 was determined as 135 nM.

Consider `COc1cc(N2CC(=O)NS2(=O)=O)ccc1NCC#Cc1sc2c(N[C@@H]3CCN(C)C[C@@H]3F)cccc2c1CC(F)(F)F` [Example 5, 5-(4-((3-(7-(((3S,4R)-3-fluoro-1-methylpiperidin-4-yl)amino)-3-(2,2,2-trifluoroethyl)benzo[b]thiophen-2-yl)prop-2-yn-1-yl)amino)-3-methoxyphenyl)-1,2,5-thiadiazolidin-3-one-1,1-dioxide], for which the EC50 was 323 nM.
